According to US20100016285A1, “HETEROCYCLIDENE-N-(ARYL) ACETAMIDE DERIVATIVE” (MOCHIDA PHARMACEUTICAL CO., LTD., priority 2007, published 2010):
Like-named read-outs stand apart in the source and are kept apart here.

How the values were obtained:
human TRPV1 [1] = molecular target: T1, human TRPV1 (Homo sapiens, UniProt Q8NER1); assay: Capsaicin-induced Ca influx in transformed CHO cells, FDSS-6000 (b-1), A2 value; type: cell-based; conditions: concentration shifting the capsaicin concentration-reaction curve two times rightward; CHO cells expressing TRPV1
T1 construct: expressed in transfected cells; host or cells: CHO-K1 cells, pCAGGS vector, clones selected by limiting dilution
T1 sequence (Q8NER1 whole entry): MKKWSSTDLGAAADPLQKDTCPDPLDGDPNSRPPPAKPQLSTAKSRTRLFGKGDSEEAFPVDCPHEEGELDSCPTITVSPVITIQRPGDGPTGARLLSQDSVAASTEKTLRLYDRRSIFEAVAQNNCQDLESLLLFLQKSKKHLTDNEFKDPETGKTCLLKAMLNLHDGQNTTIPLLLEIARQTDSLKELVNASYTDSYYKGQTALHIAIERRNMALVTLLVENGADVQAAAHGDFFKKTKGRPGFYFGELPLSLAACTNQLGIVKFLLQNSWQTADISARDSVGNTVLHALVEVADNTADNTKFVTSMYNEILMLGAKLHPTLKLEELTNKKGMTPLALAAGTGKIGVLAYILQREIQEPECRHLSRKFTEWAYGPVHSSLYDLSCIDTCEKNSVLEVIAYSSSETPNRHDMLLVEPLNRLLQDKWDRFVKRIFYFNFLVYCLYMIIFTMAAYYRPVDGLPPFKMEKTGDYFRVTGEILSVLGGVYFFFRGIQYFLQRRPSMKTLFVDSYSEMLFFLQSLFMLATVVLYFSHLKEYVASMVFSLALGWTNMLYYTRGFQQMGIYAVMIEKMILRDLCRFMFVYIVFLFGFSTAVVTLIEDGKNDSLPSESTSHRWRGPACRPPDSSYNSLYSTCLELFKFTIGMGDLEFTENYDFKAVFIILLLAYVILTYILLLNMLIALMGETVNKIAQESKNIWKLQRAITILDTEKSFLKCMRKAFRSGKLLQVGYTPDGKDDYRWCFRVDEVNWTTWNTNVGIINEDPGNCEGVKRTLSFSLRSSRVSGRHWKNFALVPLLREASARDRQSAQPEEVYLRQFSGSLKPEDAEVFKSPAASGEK
From the text: (§1) (1) Measurement of Capsaicin-Induced Ca Influx in a Transformed CHO Cell Line Expressing Human TRPV1
(§2) (a) Establishment of a Transformed CHO Cell Line Expressing Human and Rat TRPV1
(§3) Human and rat vanilloid receptor 1 (hTRPV1 and rTRPV1) cDNA was cloned from human brain and rat dorsal root ganglion, respectively. The cloned TRPV1 cDNA was incorporated in a pCAGGS vector. The vector was introduced to a CHO-K1 cell line, thus performing transformation. Clones obtained by limiting dilution were stimulated with capsaicin. Clones with a high responsiveness were selected using an increase in the Ca concentration as an indicator. The selected clones were used for the following experiment.
(b-1) Measurement of Ca Influx using FDSS-6000
The transformed CHO cells expressing human or rat TRPV1 were seeded in a 96-well plate (with black walls and transparent bottoms, manufactured by Greiner) at a density of 40,000 cells per well. The cells were cultured at 37° C. in 5% CO2 atmosphere for one night. A loading solution of FLIPR Calcium 3 assay kit (manufactured by Molecular Devices Corporation) containing 2.5 mmol/L of probenecid was then added to each of the wells in the same amount as the culture medium, and the cells were cultured at 37° C. for 60 minutes. For three minutes after the cells were stimulated with capsaicin (1 nmol/L to 1 μmol/L), the change of the intracellular Ca concentration was measured using FDSS-6000 (λex: 480 nm, λem: […], manufactured by Hamamatsu Photonics K.K.). The integrated values of the increase rate of the intracellular Ca concentration were calculated for a group treated with the compounds of the present invention and a group treated with a vehicle, thus allowing capsaicin concentration-reaction curves to be obtained. A concentration (A2 value) of each of the compounds of the present invention, at which the capsaicin concentration-reaction curve obtained when the cells were treated with the vehicle was shifted two times rightward, was calculated. The inhibitory effects of the test compounds were compared using this value as an indicator.

[2] = Effects on rectal temperature (8-1), oral administration to rats; type: in vivo, rat; conditions: oral single doses of 3, 10 and 30 mg/kg; 30, 60 and 120 minutes; maximum absolute difference vs vehicle
Procedure: (8-1) Effects on Rectal Temperature
A test compound was orally administered to rats at single doses of 3, 10 and 30 mg/kg. Then rectal temperature was measured 30, 60 and 120 minutes after administration.
Differences of the mean value between a group treated with test substance and a vehicle-treated group were calculated at all measuring points and, based on the maximum absolute value of differences, changes in rectal temperature were divided into the following three categories:
−: the maximum value was less than 0.5 degree Celsius +: the maximum value was more than 0.5 degree but less than 1.0 degree Celsius ++: the maximum value was more than 1.0 degree Celsius

[3] = cited from earlier work
human TRPV1 [4] = molecular target: T1, human TRPV1; assay: Capsaicin (10 nmol/L)-induced Ca influx in transformed CHO cells, FDSS-6000 (b-2), IC50; type: cell-based
From the text: as §1, §2, §3
(b-2) Measurement of Ca Influx using FDSS-6000
The transformed CHO cells expressing human or rat TRPV1 were inoculated in a 96-well plate (with black walls and transparent bottoms, manufactured by Greiner) at a density of 40,000 cells per well. The cells were cultured at 37° C. in 5% CO2 atmosphere for one night. A loading solution of FLIPR Calcium 3 assay kit (manufactured by Molecular Devices Corporation) containing 2.5 mmol/L of probenecid was then added to each of the wells in the same amount as the culture medium, and the cells were cultured at 37° C. for 60 minutes. For three minutes after the cells were stimulated with capsaicin (10 nmol/L), the change of the intracellular Ca concentration was measured using FDSS-6000 (λex: 480 nm, λem: 540 nm, manufactured by Hamamatsu Photonics K.K.). The integrated values of the increase rate of the intracellular Ca concentration were calculated for a group treated with the compounds of the present invention and a group treated with a vehicle. Then, the concentration of the compound of the present invention was calculated that inhibits 50% of the intracellular Ca concentration increase induced by capsaicin (IC50). Using this value as the index, inhibitory effects of the test compounds were compared. In addition, when IC50 value in human TRPV1 was less than 100 nmol/L, it was shown as A in Table 1C.

| SMILES | A2 value (human TRPV1 [1]) | Change in rectal temperature in rats [2] | IC50 (human TRPV1 [4]) | other results |
| --- | --- | --- | --- | --- |
| O=C(/C=C1\CCCOc2cc(C(F)(F)F)ccc21)Nc1ccc2c(c1)NC(=O)C(N1CCOCC1)C2 (single isomer, unassigned) [EXAMPLE 35, (E)-2-(8-trifluoromethyl-3,4-dihydrobenzo[b]oxepin-5(2H)-ylidene)-N-(3-(4-morpholinyl)-3,4-dihydro-2(1H)-quinolinon-7-yl)acetamide] | A (A2 value of less than 100 nM) | − (the maximum value was less than 0.5 degree Celsius) | – | – |
| O=C(Nc1ccc(C(F)(F)F)cn1)N1CCN(c2ncccc2C(F)(F)F)CC1 [Compound A, 4-(3-trifluoromethylpyridine-2-yl)-N-(5-trifuluoromethylpiridine-2-yl)-1-piperadinecarboxamide] | – | – | – | Change of rat rectal temperature ([3]; Oral, reference information (Non-Patent Document 4 or 5)): Increase^1); Change in rectal temperature in rats ([3]; from published information (Non-Patent Document 4 or 5)): increased^1) |
| CC1(C)Nc2ccc(NC(=O)/C=C3\CCCOc4cc(C(F)(F)F)ccc43)cc2NC1=O [EXAMPLE 10, (E)-2-(8-trifluoromethyl-3,4-dihydrobenzo[b]oxepin-5(2H)-ylidene)-N-(3,3-dimethyl-3,4-dihydro-2(1H)-quinoxalinon-7-yl)acetamide] | A (A2 value of less than 100 nM) | + (the maximum value was more than 0.5 degree but less than 1.0 degree Celsius) | – | – |
| O=C(/C=C1\CCCOc2cc(C(F)(F)F)ccc21)Nc1ccc2c(c1)NC(=O)NC2 [EXAMPLE 13, (E)-2-(8-trifluoromethyl-3,4-dihydrobenzo[b]oxepin-5(2H)-ylidene)-N-(3,4-dihydro-1H-quinazolin-2-on-7-yl)acetamide] | A (A2 value of less than 100 nM) | − (the maximum value was less than 0.5 degree Celsius) | – | – |
| O=C(/C=C1\CCCOc2cc(C(F)(F)F)ccc21)Nc1ccc2c(c1)NC(=O)N(CCO)C2 [EXAMPLE 15, (E)-2-(8-trifluoromethyl-3,4-dihydrobenzo[b]oxepin-5(2H)-ylidene)-N-(3-(2-hydroxyethyl)-3,4-dihydro-2(1H)-quinazolinon-7-yl)acetamide] | A (A2 value of less than 100 nM) | − (the maximum value was less than 0.5 degree Celsius) | – | – |
| O=C(/C=C1\CCOc2cc(C(F)(F)F)ccc21)Nc1ccc2c(c1)NC(=O)CC2 [EXAMPLE 23, (E)-2-(7-trifluoromethylchroman-4-ylidene)-N-(3,4-dihydroquinolin-2(1H)-on-7-yl)acetamide] | A (A2 value of less than 100 nM) | − (the maximum value was less than 0.5 degree Celsius) | – | – |
| CC1(C)N/C(=C\C(=O)Nc2ccc3c(c2)NC(=O)CC3)c2ccc(C(F)(F)F)cc2O1 [EXAMPLE 26, (Z)-2-(6-trifluoromethyl-3,3-dimethyl-4-oxa-3,4-dihydroisoquinolin-1(2H)-ylidene)-N-(3,4-dihydroquinolin-2(1H)-on-7-yl)acetamide] | A (A2 value of less than 100 nM) | − (the maximum value was less than 0.5 degree Celsius) | – | – |
| CN1C(=O)NCc2ccc(NC(=O)/C=C3\CCOc4cc(C(F)(F)F)ccc43)cc21 [Example 151, (E)-2-(7-trifluoromethyl-chroman-4-yliden)-N-(3,4-dihydro-1-methyl-2(1H)-quinazolinon-7-yl)acetamide] | – | − (the maximum value was less than 0.5 degree Celsius) | – | – |
| CN1c2cc(NC(=O)/C=C3\CC4(CCC4)Oc4cc(C(F)(F)F)ccc43)ccc2CCS1(=O)=O [Example 200, (E)-2-(7-trifluoromethyl-spiro[chroman-2,1′-cyclobutane]-4-ylidene)-N-(3,4-dihydro-2,2-dioxo-1-methyl-1H-2,1-benzothiazin-7-yl)acetamide] | – | − (the maximum value was less than 0.5 degree Celsius) | – | – |
| CN1C(=O)NCc2c(NC(=O)/C=C3\CCCOc4cc(C(F)(F)F)ccc43)cccc21 [Example 302, (E)-2-(3,4-dihydro-8-trifluoromethyl-1-benzoxepin-5(2H)-ylidene)-N-(3,4-dihydro-1-methyl-2(1H)-quinazolinone-5-yl)acetamide] | – | – | < 100 nM | – |
| CN1C(=O)NCc2c(NC(=O)/C=C3\CCOCc4cc(C(F)(F)F)ccc43)cccc21 [Example 303, (E)-2-(3,4-dihydro-8-trifluoromethyl-2-benzoxepin-5(1H)-ylidene)-N-(3,4-dihydro-1-methyl-2(1H)-quinazolinone-5-yl)acetamide] | – | – | < 100 nM | – |
| CN1C(=O)NCc2c(NC(=O)/C=C3\CCOc4cc(C(F)(F)F)ccc43)cccc21 [Example 304, (E)-2-(7-trifluoromethylchroman-4-ylidene)-N-(3,4-dihydro-1-methyl-2(1H)-quinazolinone-5-yl)acetamide] | – | – | < 100 nM | – |
| CCN1C(=O)NCc2c(NC(=O)/C=C3\CCCOc4cc(C(F)(F)F)ccc43)cccc21 [Example 306, (E)-2-(3,4-dihydro-B-trifluoromethyl-1-benzoxepin-5(2H)-ylidene)-N-(3,4-dihydro-1-ethyl-2(1H)-quinazolinone-5-yl)acetamide] | – | – | < 100 nM | – |
| CCN1C(=O)NCc2c(NC(=O)/C=C3\CCOCc4cc(C(F)(F)F)ccc43)cccc21 [Example 307, (E)-2-(3,4-dihydro-8-trifluoromethyl-2-benzoxepin-5(1H)-ylidene)-N-(3,4-dihydro-1-ethyl-2(1H)-quinazolinone-5-yl)acetamide] | – | – | < 100 nM | – |
| CCN1C(=O)NCc2c(NC(=O)/C=C3\CCOc4cc(C(F)(F)F)ccc43)cccc21 [Example 308, (E)-2-(7-trifluoromethylchroman-4-ylidene)-N-(3,4-dihydro-1-ethyl-2(1H)-quinazolinone-5-yl)acetamide] | – | – | < 100 nM | – |
| CCN1C(=O)NCc2c(NC(=O)/C=C3\CC(C)(C)Oc4cc(C(F)(F)F)ccc43)cccc21 [Example 309, (E)-2-(2,2-dimethyl-7-trifluoromethylchroman-4-ylidene)-N-(3,4-dihydro-1-ethyl-2(1H)-quinazolinone-5-yl)acetamide] | – | – | < 100 nM | – |
| CCN1C(=O)NCc2c(NC(=O)/C=C3\CC(CC)(CC)Oc4cc(C(F)(F)F)ccc43)cccc21 [Example 310, (E)-2-(2,2-diethyl-7-trifluoromethylchroman-4-ylidene)-N-(3,4-dihydro-1-ethyl-2(1H)-quinazolinone-5-yl)acetamide] | – | – | < 100 nM | – |
| CCN1C(=O)NCc2c(NC(=O)/C=C3\CC(COC)(COC)Oc4cc(C(F)(F)F)ccc43)cccc21 [Example 311, (E)-2-(2,2-bis(methoxymethyl)-7-trifluoromethylchroman-4-ylidene)-N-(3,4-dihydro-1-ethyl-2(1H)-quinazolinone-5-yl)acetamide] | – | – | < 100 nM | – |
| CCN1C(=O)NCc2c(NC(=O)/C=C3\CC4(CCOCC4)Oc4cc(C(F)(F)F)ccc43)cccc21 [Example 312, (E)-2-(7-trifluoromethyl-spiro[chroman-2,4′-tetrahydropyran]-4-ylidene)-N-(3,4-dihydro-1-ethyl-2(1H)-quinazolinone-5-yl)acetamide] | – | – | < 100 nM | – |
| CN1C(=O)NCc2c(NC(=O)/C=C3\NC(C)(C)Oc4cc(C(F)(F)F)ccc43)cccc21 [Example 313, (Z)-2-(2,3-dihydro-2,2-dimethyl-7-trifluoromethyl-4H-1,3-benzoxazin-4-ylidene)-N-(3,4-dihydro-1-methyl-2(1H)-quinazolinone-5-yl)acetamide] | – | – | < 100 nM | – |
